Measured values: patent US20170327556A1, “CARTILAGE-BINDING FUSION PROTEINS” (Merrimack Pharmaceuticals, Inc., priority 2013, published 2017)

Assays:
collagen type II = molecular target: T1, collagen type II (Homo sapiens, UniProt P02458); experiment: ELISA binding of fusion proteins to collagen type II coated plates; conditions: 6x-Histidine-tagged proteins, FIG. 2
T1 construct: purchased Chondrex Products, Redmond, Wash
Protocol: Specificity of proteins to collagen type II may be determined by measuring the ability of the protein to bind the collagen coated on an ELISA plate. Reacti-Bind® 96 well plates are coated overnight at 4° C. with 100 μl of collagen type II (Chondrex Products, Redmond, Wash.) with 1× supplied buffer. Plates are washed with PBS, 0.05% Tween-20 (PBST) and blocked for 1 hour at room temperature with 100 μl of Protein-Free Blocking Buffer (Pierce, Thermo Scientific). Plates are then washed with PBST and tapped dry. 50 μL, of protein in a dilution series is added to the wells and incubated for 1 hour at room temperature. The protein dilution series starts from 100 μM and includes ten additional three-fold dilutions in PBS and one blank (PBS). After plates are washed in PBS, 50 μL, of anti-human IGF-1 (Abcam) at 1:250 in PBST is added and plates are incubated for 1 hour rotating at room temperature. The plates are then washed with PBST and 100 μL, of 1:1000 anti-Rabbit-HRP (Cell Signaling Technology) in PBST for 1 hour at room temperature. […] The absorbance is measured at 450 nm and the resulting data is analyzed using GraphPad Prism®.
The binding of two anticipated type II collagen binding fusion proteins, GF-Fus5 (6x-Histidine-tagged) and GF-Fus6 (6x-Histidine-tagged) was measured as described above.

[1] = tested on: human ankle and knee cartilage explants; experiment: In vitro joint disease model, explanted human cartilage: ^35S-sulfate incorporation; format: cell-based; conditions: for sulfated matrix biosynthesis in the absence of cytokines, 16 day combination with Dexamethasone: FIG. 14E black bars; for ^35S-sulfate incorporation, 16 D treatment: protein 16 days in combination with Anti-Infl-1, cytokines, versus Disease control
Protocol: Human cartilage explants are harvested from the knee and ankle of human cadaver donors within 24 hours postmortem. Joints are aseptically dissected by a pathologist to assess gross cartilage morphology by the modified Collins scale (Kuettner, et al., Cartilage degeneration in different human joints. Osteoarthritis Cartilage. 2005; 13(2):93-103) and only grade 0 or 1 joints are used. Full-thickness knee cartilage surfaces are harvested from the femoral-patellar groove and chondyles using a scalpel. Full thickness ankle cartilage is harvested from the dome of talus, proximal area under dome of talus, head of the talus, tibial malleolus and fibular malleolus using a scalpel. Using a 4 mm diameter disposable biopsy punch, full thickness cartilage cores are punched from the cartilage surfaces keeping the superficial zone intact and used as explants in culture.
Explants are cultured in 96-well plates in 300 μL of low glucose DMEM (1× Gibco 11885-084) with added Penicillin-Streptomycin (1×, Gibco 15140-122), ascorbic acid (20 μg/mL, Sigma A4403), proline (400 μM, Sigma P5607-256), non-essential amino acids (1×, Sigma M7145), and HEPES ([…], Gibco 15630-080). Explants from 2-3 donors (4-6 explants per donor) are used for each treatment condition for a total explant number of 12-18 per condition. Donor ages were: 67 year male ankle, 71 year male ankle, 76 year female ankle, 59 year male knee, 34 year male knee, and 63 year female knee. Medium is changed every 2 days. On day 14, the medium is supplemented with 5 μCi/mL of ^35S-sodium sulfate (Perkin Elmer NEX041H005MC, 5 mCi).
Time points are taken at day 16 as follows. Explant tissue is washed four times for 30 min each (2 hr total) in 1 mM unlabeled sodium sulfate in PBS. Each explant is weighed wet and frozen at −20° C. until digestion. Tissue digestion is performed with Proteinase K (Roche cat #3115879001) and each explant is digested in 1 mL 500 μg/mL Proteinase K in 50 mM Tris-HCL, 1 mM calcium chloride pH=8.0 buffer at 60° C. overnight. Measurement of sGAG content and DNA content is performed using standard assay methods such as those described in Hoemann, 2004, Methods in Molecular Medicine: Cartilage and Osteoarthritis. Totowa, N.J.: Humana Press Inc.; p. 127-52. ^35S-sulfate content of the digested cartilage explants is quantified by mixing 20 μL of digest with 250 μL of scintillation fluid (Perkin Elmer cat #1200-439) and counting with A WALLAC 1450 MICROBETA TRILUX scintillation counter.
Treatments were given at the following concentrations: GF-Fus1 13.3 nM=135 ng/mL; and GF-Fus3 13.3 nM=181 ng/mL; Dexamethasone 100 nM=39.2 ng/mL. Growth factor and steroid treatment conditions included the cytokines TNF-alpha (R&D Systems, Cat#210-TA, 25 ng/mL), IL-6 (R&D Systems, Cat#206-IL, 50 ng/mL), and IL-6R alpha (R&D Systems, Cat#227-SR, 250 ng/mL) which were supplied in each medium change. GF-Fus1 and GF-Fus3 were added to fresh medium for either the first 8 days (8 D) or the entire 16 day culture duration (16 D), whereas Dexamethasone was added for the entire 16 days in all cases. Controls were either no cytokines (Healthy) or with cytokines alone (Disease). The outcomes measured from the cartilage explants at day 16 were ^35S-sulfate incorporation, DNA, and sGAG content, and sGAG released to media for all media changes.

[2] = ELISA binding of fusion proteins to chondroitin sulfate coated plates; conditions: 6x-Histidine-tagged proteins, FIG. 1B
Protocol: The specificity of binding of fusion proteins to the polysaccharides heparan sulfate and chondroitin sulfate may be determined by measuring the ability of the proteins to bind polysaccharides coated on an ELISA plate. Heparin Binding Plates (BD Biosciences) are coated with 50 μl of 2-10 μg/mL concentration of heparan sulfate or chondroitin sulfate (Sigma-Aldrich®) and incubated overnight at room temperature. Plates are washed with PBS and blocked with 250 μl of 0.2% gelatin in PBS for 1 hour at 37 C. Plates are then washed with PBS and tapped dry. 50 μl of protein in a dilution series is added to the wells and incubated for 2 hours at 37 C. The protein dilution series starts from 100 nM and includes ten additional three-fold dilutions in PBS, 0.2% gelatin and one blank (PBS, 0.2% gelatin only). After the plates are washed in PBS, 50 μl of anti-human IGF-1 (Abcam) at 1:250 in PBST is added and the plates are incubated for 1 hour rotating at room temperature. Plates are washed with PBST and 100 μl of 1:1000 anti-Rabbit-HRP (Cell Signaling Technology®) in PBST is added to each well and the plate is incubated for 1 hour at room temperature. […] The absorbance is measured at 450 nm and the resulting data is analyzed using GraphPad Prism® (GraphPad Software, San Diego, Calif.). […]

T1 sequence (P02458 182-1241 limits assumed): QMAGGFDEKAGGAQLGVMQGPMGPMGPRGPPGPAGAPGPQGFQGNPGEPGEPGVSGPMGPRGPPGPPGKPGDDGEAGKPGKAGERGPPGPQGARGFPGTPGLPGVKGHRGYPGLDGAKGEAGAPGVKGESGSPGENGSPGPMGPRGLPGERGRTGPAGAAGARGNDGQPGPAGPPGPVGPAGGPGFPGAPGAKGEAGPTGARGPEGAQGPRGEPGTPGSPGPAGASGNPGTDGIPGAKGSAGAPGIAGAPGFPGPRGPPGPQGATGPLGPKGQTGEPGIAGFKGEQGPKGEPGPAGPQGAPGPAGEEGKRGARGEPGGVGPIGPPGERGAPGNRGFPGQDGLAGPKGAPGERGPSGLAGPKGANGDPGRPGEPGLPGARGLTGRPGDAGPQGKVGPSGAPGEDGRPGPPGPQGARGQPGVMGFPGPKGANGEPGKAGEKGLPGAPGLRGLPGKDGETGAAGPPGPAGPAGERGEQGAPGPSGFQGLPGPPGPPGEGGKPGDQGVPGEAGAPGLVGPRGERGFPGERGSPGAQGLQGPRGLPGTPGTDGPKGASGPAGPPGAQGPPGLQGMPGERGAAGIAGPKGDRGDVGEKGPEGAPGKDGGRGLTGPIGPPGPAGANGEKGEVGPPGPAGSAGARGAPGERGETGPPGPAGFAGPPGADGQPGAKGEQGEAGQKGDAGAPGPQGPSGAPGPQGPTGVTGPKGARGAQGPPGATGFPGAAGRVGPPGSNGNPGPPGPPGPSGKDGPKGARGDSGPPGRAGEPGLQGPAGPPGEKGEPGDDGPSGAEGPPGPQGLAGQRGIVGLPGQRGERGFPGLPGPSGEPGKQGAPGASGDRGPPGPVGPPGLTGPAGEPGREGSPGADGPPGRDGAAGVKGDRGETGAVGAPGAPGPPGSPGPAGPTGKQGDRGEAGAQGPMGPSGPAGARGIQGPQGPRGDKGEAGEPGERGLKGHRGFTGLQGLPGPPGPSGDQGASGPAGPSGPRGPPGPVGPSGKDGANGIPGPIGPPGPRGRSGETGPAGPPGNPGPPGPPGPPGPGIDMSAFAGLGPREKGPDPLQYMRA

Substance	binding to collagen type II (collagen type II)	sulfated matrix biosynthesis in the absence of cytokines, 16 day combination with Dexamethasone ([1]; human knee chondyle cartilage)	^35S-sulfate incorporation, 16 D treatment ([1]; FIGS. 14A-D)	binding to chondroitin sulfate [2]	synthesis of new sulfated cartilage matrix (^35S-sulfate incorporation) ([1]; 13.3 nM, 16 days with cytokines, with and without Dexamethasone, versus Disease)	^35S-sulfate incorporation, 8 D treatment ([1]; protein first 8 days only, Anti-Infl-1 16 days, cytokines, measured final 48 hours of 16 day culture, FIGS. 14A-D)	sulfated matrix biosynthesis in the absence of cytokines, protein removed for the final 8 days ([1]; with Dexamethasone 16 days, human knee chondyle cartilage, FIG. 14E white bars)
GF-Fus5: IGF-1(LR3) fused to CNA35 CB domain	bound to collagen type II						
GF-Fus1: IGF-1 variant polypeptide Long [R^3]-IGF-1, no fused binding domain; used 6x-Histidine-tagged as control [reference compound]		restores sulfated matrix biosynthesis to a level at or above healthy controls	stimulated				
GF-Fus6: IGF-1(LR3) fused to CNA344 CB domain	binding more strongly						
GF-Fus3: C-terminal fusion IGF-1(LR3)-PRELP heparin binding domain		restores sulfated matrix biosynthesis to a level at or above healthy controls	stimulated	bound	upregulates	equivalent or superior potency to the continuously delivered proteins	sustains sulfated matrix biosynthesis at the level equivalent to continuous 16 day treatment
